Entries after “also recorded” stand apart in the source; their conditions may differ.
Tests used:
Format in all cases: in vivo, mouse
[1] = tested on: splenocytes (CD4+Foxp3+ Tregs, CD4+ IFN-γ+ T cells); assay: Flow cytometry of splenocytes
Method: Mice were transcardially perfused with PBS, and tissues were treated as previously described (Baruch et al, 2013). Brains were dissected and the different brain regions were removed under a dissecting microscope (Stemi DV4; Zeiss) in PBS, and tissues were dissociated using the gentleMACS™ dissociator (Miltenyi Biotec). Choroid plexus tissues were isolated from the lateral, third and fourth ventricles of the brain, incubated at 37° C. for 45 min in PBS (with Ca^2+/Mg^2+) containing 400 U/ml collagenase type IV (Worthington Biochemical Corporation), and then manually homogenized by pipetting. Spleens were mashed with the plunger of a syringe and treated with ACK (ammonium chloride potassium) lysing buffer to remove erythrocytes. In all cases, samples were stained according to the manufacturers' protocols. All samples were filtered through a 70 μm nylon mesh, and blocked with anti-Fc CD16/32 (1:100; BD Biosciences). For intracellular staining of IFN-γ, the cells were incubated with […] (10 ng/ml; Sigma-Aldrich) and ionomycin (250 ng/ml; Sigma-Aldrich) for 6 h, and Brefeldin-A (10 μg/ml; Sigma-Aldrich) was added for the last 4 h. Intracellular labeling of cytokines was done with BD Cytofix/Cytoperm™ Plus fixation/permeabilization kit (cat. no. 555028). For Treg staining, an eBioscience FoxP3 staining buffer set (cat. no. 00-5523-00) was used. The following fluorochrome-labeled monoclonal antibodies were purchased from BD Pharmingen, BioLegend, R&D Systems, or eBiosciences, and used according to the manufacturers' protocols: PE or Alexa Fluor 450-conjugated anti-CD4; PE-conjugated anti-CD25; PerCP-Cy5.5-conjugated anti-CD45; FITC-conjugated anti-TCRβ; APC-conjugated anti-IFN-γ; APC-conjugated anti-FoxP3; Brilliant-violet-conjugated anti-CD45. Cells were analyzed on an LSRII cytometer (BD Biosciences) using FlowJo software. In each experiment, relevant negative control groups, positive controls, and single stained samples for each tissue were used to identify the populations of interest and to exclude other populations.

Aβ plaques = assay: Aβ plaque quantitation (immunohistochemistry)
Method: Tissue processing and immunohistochemistry were performed on paraffin embedded sectioned mouse (6 μm thick) and human (10 μm thick) brains. For human ICAM-1 staining, primary mouse anti-ICAM (1:20 Abcam; ab2213) antibody was used. Slides were incubated for 10 min with 3% H2O2, and a secondary biotin-conjugated anti-mouse antibody was used, followed by biotin/avidin amplification with Vectastain ABC kit (Vector Laboratories). Subsequently, 3,3′-diaminobenzidine (DAB substrate) (Zytomed kit) was applied; slides were dehydrated and mounted with xylene-based mounting solution. For tissue stainings, mice were transcardially perfused with PBS prior to tissue excision and fixation. CP tissues were isolated under a dissecting microscope (Stemi DV4; Zeiss) from the lateral, third, and fourth ventricles of the brain. For whole mount CP staining, tissues were fixated with 2.5% paraformaldehyde (PFA) for 1 hour at 4° C., and subsequently transferred to PBS containing 0.05% sodium azide. Prior to staining, the dissected tissues were washed with PBS and blocked (20% horse serum, 0.3% Triton X-100, and PBS) for 1 h at room temperature. Whole mount staining with primary antibodies (in PBS containing 2% horse serum and 0.3% Triton X-100), or secondary antibodies, was performed for 1 h at room temperature. Each step was followed by three washes in PBS. The tissues were applied to slides, mounted with Immu-mount (9990402, from Thermo Scientific), and sealed with cover-slips. For staining of sectioned brains, two different tissue preparation protocols (paraffin embedded or microtomed free-floating sections) were applied, as previously described (Baruch et al, 2013; Kunis et al, 2013). The following primary antibodies were used: mouse anti-Aβ (1:300, Covance, #SIG-39320); rabbit anti-GFP (1:100, MBL, #598); rat anti-CD68 (1:300, eBioscience, #14-0681); rat anti-ICAM-1 (1:200, Abcam, #AB2213); goat anti-GFP (1:100, Abcam, #ab6658); rabbit anti-IBA-1 (1:300, Wako, #019-19741); goat anti-IL-10 (1:20, R&D systems, #AF519); rat anti-Foxp3 (1:20, eBioscience, #13-5773-80); rabbit anti-CD3 (1:500, Dako, #IS503); mouse anti-ZO-1, mouse anti-E-Cahedrin, and rabbit anti-Claudin-1 (all 1:100, Invitrogen, #33-9100, #33-4000, #51-9000); rabbit anti-GFAP (1:200, Dako, #Z0334). Secondary antibodies included: Cy2/Cy3/Cy5-conjugated donkey anti-mouse/goat/rabbit/rat antibodies (1:200; all from Jackson Immunoresearch). The slides were exposed to Hoechst nuclear staining (1:4000; Invitrogen Probes) for 1 min. Two negative controls were routinely used in immunostaining procedures, staining with isotype control antibody followed by secondary antibody, or staining with secondary antibody alone. For Foxp3 intracellular staining, antigen retrieval from paraffin-embedded slides was performed using Retreivagen Kit (#550524, #550527; BD Pharmingen™). Microscopic analysis, was performed using a fluorescence microscope (E800; Nikon) or laser-scanning confocal microscope (Carl Zeiss, Inc.). The fluorescence microscope was equipped with a digital camera (DXM 1200F; Nikon), and with either a 20× NA 0.50 or 40× NA 0.75 objective lens (Plan Fluor; Nikon). The confocal microscope was equipped with LSM 510 laser scanning capacity (three lasers: Ar 488, HeNe 543, and HeNe 633). Recordings were made on postfixed tissues using acquisition software (NIS-Elements, F3 [Nikon] or LSM [Carl Zeiss, Inc.]). For quantification of staining intensity, total cell and background staining was measured using ImageJ software (NIH), and intensity of specific staining was calculated, as previously described (Burgess et al, 2010). Images were cropped, merged, and optimized using Photoshop CS6 13.0 (Adobe), and were arranged using Illustrator CS5 15.1 (Adobe).
From each brain, 6 μm coronal slices were collected, and eight sections per mouse, from four different pre-determined depths throughout the region of interest (dentate gyrus or cerebral cortex) were immunostained. […]

[2] = tested on: hippocampal gliosis (GFAP); assay: GFAP immunostaining (astrogliosis)
Method: Tissue processing and immunohistochemistry were performed on paraffin embedded sectioned mouse (6 μm thick) and human (10 μm thick) brains. For human ICAM-1 staining, primary mouse anti-ICAM (1:20 Abcam; ab2213) antibody was used. Slides were incubated for 10 min with 3% H2O2, and a secondary biotin-conjugated anti-mouse antibody was used, followed by biotin/avidin amplification with Vectastain ABC kit (Vector Laboratories). Subsequently, 3,3′-diaminobenzidine (DAB substrate) (Zytomed kit) was applied; slides were dehydrated and mounted with xylene-based mounting solution. For tissue stainings, mice were transcardially perfused with PBS prior to tissue excision and fixation. CP tissues were isolated under a dissecting microscope (Stemi DV4; Zeiss) from the lateral, third, and fourth ventricles of the brain. […] Microscopic analysis, was performed using a fluorescence microscope (E800; Nikon) or laser-scanning confocal microscope (Carl Zeiss, Inc.). The fluorescence microscope was equipped with a digital camera (DXM 1200F; Nikon), and with either a 20× NA 0.50 or 40× NA 0.75 objective lens (Plan Fluor; Nikon). […] For quantification of staining intensity, total cell and background staining was measured using ImageJ software (NIH), and intensity of specific staining was calculated, as previously described (Burgess et al, 2010). […]

[3] = 3 weeks after last ATRA injection, AD-Tg mice

`CC1=C(/C=C/C(C)=C/C=C/C(C)=C/C(=O)O)C(C)(C)CCC1` [ATRA, All-trans retinoic acid] was tested, and the “splenocyte frequencies of Foxp3+CD25+ Tregs” value ([1]; ATRA 8 mg/kg/d i.p. every other day 1 week vs vehicle (DMSO), 5-month 5XFAD AD-Tg mice) was “significantly higher; also recorded: elevation”, the “cerebral Aβ plaque burden” value (Aβ plaques; [3]) was 2-3 fold increase and the gliosis [2, 3] was 2-3 fold increase.
For Diphtheria toxin [DTx], the “hippocampal gliosis (GFAP immunostaining)” value ([2]; AD-Tg/DTR+ mice, 3 weeks after last DTx injection) was “reduced astrogliosis; also recorded: reduction in hippocampal gliosis”.
For Glatiramer acetate [GA], the “splenocyte Foxp3+ Treg levels” value ([1]; weekly-GA, 5XFAD AD-Tg mice, end of 1st week of regimen) was “reduced”, the Aβ plaque load (Aβ plaques; daily-GA 100 μg s.c. for 1 month, 5XFAD AD-Tg mice) was “did not show any beneficial effect, or showed a moderate adverse effect on plaque load” and the “Aβ plaque load (percentage of total area of hippocampal dentate gyrus)” value (Aβ plaques; weekly-GA, 5XFAD AD-Tg mice) was “robust effect; also recorded: reduction in Aβ plaque load”. The “mean Aβ plaque numbers” value (Aβ plaques; weekly-GA, 5XFAD AD-Tg mice) was “reduction”.

Source: patent publication US10961309B2, “Reducing systemic regulatory T cell levels or activity for treatment of disease and injury of the CNS” (Yeda Research and Development Co. Ltd, priority 2014, dated 2021)
